Data published in US9629861B2, “Compositions and methods for treating bacterial infections using ceftaroline” (Forest Laboratories Holdings Limited, priority 2009, dated 2017).

Legend:
[1] = Pharmacokinetics in healthy elderly subjects; format: in vivo, human; settings: healthy elderly (≧65 years); 600 mg IV dose
CYP1A1 = target: T1, CYP1A1 (Homo sapiens, UniProt P04798); experiment: CYP inhibition in human liver microsomes; format: in vitro ADME
T1 construct: In vitro studies in human liver microsomes; from tissue; host or cells: human liver microsomes
T1 sequence (P04798 whole entry): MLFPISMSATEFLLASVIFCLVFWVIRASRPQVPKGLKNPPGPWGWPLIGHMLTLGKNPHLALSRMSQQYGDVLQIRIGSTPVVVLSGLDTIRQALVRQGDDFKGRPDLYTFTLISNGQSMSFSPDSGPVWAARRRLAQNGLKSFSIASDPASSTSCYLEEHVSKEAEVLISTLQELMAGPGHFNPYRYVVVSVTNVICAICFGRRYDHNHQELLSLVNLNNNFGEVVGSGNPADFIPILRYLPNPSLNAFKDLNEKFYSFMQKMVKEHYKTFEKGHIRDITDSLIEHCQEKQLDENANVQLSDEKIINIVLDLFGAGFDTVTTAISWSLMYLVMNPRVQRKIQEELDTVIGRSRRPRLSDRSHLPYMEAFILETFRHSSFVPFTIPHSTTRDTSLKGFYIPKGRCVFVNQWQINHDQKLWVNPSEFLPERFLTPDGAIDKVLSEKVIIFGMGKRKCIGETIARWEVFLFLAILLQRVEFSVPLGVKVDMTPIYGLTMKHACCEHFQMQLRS

CYP2B6 [2] = experiment: CYP induction in human hepatocytes; format: in vitro ADME
CYP2C8 [3] = target: T2, CYP2C8 (Homo sapiens, UniProt P10632); experiment: CYP inhibition in human liver microsomes; format: in vitro ADME
T2 construct: In vitro studies in human liver microsomes; from tissue; host or cells: human liver microsomes
T2 sequence (P10632 whole entry): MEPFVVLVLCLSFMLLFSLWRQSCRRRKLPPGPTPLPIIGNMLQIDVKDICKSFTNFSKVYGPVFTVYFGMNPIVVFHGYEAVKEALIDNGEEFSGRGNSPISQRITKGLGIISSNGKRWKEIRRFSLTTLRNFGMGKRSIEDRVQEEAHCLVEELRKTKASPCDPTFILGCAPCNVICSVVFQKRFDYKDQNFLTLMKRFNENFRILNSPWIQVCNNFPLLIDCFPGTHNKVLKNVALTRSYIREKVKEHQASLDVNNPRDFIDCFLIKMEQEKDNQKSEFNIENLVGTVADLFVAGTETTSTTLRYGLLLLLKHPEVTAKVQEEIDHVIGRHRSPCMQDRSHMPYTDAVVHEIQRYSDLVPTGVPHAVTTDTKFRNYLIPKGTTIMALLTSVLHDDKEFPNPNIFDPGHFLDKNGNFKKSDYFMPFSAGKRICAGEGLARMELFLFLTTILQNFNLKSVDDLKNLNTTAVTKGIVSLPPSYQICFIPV

CYP2A6 = target: T3, CYP2A6 (Homo sapiens, UniProt P11509); experiment: CYP inhibition in human liver microsomes; format: in vitro ADME
T3 construct: In vitro studies in human liver microsomes; from tissue; host or cells: human liver microsomes
T3 sequence (P11509 whole entry): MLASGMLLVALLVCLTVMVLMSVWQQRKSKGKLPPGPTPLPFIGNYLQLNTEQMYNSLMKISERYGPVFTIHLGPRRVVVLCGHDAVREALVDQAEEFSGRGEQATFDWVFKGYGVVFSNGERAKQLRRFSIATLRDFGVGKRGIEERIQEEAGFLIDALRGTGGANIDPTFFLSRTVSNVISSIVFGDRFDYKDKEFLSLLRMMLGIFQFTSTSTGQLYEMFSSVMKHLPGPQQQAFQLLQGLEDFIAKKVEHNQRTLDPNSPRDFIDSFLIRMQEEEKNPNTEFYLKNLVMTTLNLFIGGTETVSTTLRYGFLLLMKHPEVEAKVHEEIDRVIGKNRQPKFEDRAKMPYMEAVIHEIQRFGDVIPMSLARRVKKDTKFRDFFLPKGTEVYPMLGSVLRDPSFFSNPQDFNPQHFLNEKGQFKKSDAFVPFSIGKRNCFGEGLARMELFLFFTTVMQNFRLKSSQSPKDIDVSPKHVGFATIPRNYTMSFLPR

[4] = Pharmacokinetics of ceftaroline after IV infusion of ceftaroline fosamil in adults with normal renal function; parameters: species or system human; settings: in vivo
From the text: The standard deviation is shown in brackets.

CYP2C8 [5] = settings: human hepatocytes
CYP1A2 [6] = settings: human hepatocytes
CYP3A4 = target: T4, CYP3A4 (Homo sapiens, UniProt P08684); experiment: CYP inhibition in human liver microsomes; format: in vitro ADME
T4 construct: In vitro studies in human liver microsomes; from tissue; host or cells: human liver microsomes
T4 sequence (P08684 whole entry): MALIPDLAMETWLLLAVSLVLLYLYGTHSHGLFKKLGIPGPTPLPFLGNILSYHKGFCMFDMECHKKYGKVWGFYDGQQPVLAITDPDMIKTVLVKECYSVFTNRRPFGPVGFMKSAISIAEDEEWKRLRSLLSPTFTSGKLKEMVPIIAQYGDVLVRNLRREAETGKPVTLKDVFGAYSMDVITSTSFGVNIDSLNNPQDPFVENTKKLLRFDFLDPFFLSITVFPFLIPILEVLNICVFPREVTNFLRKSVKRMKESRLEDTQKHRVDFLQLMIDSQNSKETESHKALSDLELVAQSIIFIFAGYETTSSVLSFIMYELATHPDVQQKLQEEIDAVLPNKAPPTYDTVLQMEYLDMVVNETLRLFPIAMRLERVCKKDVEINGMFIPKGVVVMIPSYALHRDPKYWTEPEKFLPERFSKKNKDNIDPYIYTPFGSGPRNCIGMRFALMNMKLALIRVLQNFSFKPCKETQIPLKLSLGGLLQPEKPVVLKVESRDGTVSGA

S. aureus = experiment: Example 5 CAP study, outcome by baseline pathogen; format: in vivo, Staphylococcus aureus
From the text: (§1) Per-pathogen clinical cure rate and favorable microbiological outcome rate at TOC in the mMITTE and ME Populations;

CYP2C9 = target: T5, CYP2C9 (Homo sapiens, UniProt P11712); experiment: CYP inhibition in human liver microsomes; format: in vitro ADME
T5 construct: In vitro studies in human liver microsomes; from tissue; host or cells: human liver microsomes
T5 sequence (P11712 whole entry): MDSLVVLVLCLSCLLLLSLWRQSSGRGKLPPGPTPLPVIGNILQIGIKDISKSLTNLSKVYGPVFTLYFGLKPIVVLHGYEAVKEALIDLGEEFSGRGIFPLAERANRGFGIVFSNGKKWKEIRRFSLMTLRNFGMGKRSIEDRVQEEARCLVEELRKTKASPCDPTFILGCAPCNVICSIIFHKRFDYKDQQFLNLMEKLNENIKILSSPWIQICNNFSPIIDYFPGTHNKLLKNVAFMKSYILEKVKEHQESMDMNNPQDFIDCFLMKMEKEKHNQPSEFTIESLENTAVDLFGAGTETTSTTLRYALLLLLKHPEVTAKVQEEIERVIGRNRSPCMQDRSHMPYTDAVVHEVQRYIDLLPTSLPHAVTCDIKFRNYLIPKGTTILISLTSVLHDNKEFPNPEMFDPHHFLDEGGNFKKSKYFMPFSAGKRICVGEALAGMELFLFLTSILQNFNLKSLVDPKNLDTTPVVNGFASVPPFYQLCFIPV

CYP2C19 = settings: human hepatocytes
[7] = system: Community-Acquired Bacterial Pneumonia (CABP); experiment: Two Phase 3 studies in CABP, integrated; format: in vivo, human; settings: for Clinical Cure Rate at TOC / Treatment Difference in clinical cure rate at TOC: integrated CABP studies; for Clinical Cure Rate at TOC: after 5 to 7 days of therapy; for Treatment Difference in clinical cure rate at TOC / Weighted treatment difference (95% CI): versus ceftriaxone; for Weighted treatment difference (95% CI): combined CABP studies
Experimental: (§2) In both treatment groups of CABP Study 1, two doses of oral clarithromycin (500 mg q12h), were administered as adjunctive therapy starting on Study Day 1. No adjunctive macrolide therapy was used in CABP Study 2. Patients with new or progressive pulmonary infiltrate(s) on chest radiography and clinical signs and symptoms consistent with CABP with the need for hospitalization and IV therapy were enrolled in the studies. Treatment duration was 5 to 7 days. A switch to oral therapy was not allowed. The Modified Intent-to-Treat Efficacy (MITTE) population included all patients who received any amount of study drug according to their randomized treatment group and were in PORT (Pneumonia Outcomes Research Team) Risk Class III or IV.
The primary efficacy endpoint was the clinical response at the Test of Cure (TOC) visit in the co-primary CE and MITTE populations (Table 4). In a subgroup analysis (CE population), the comparative clinical cure rates between the ceftaroline group and the ceftriaxone group were not affected by age, gender, race, ethnicity, or weight.

[8] = human, in vivo
CYP1A2 [9] = target: CYP1A2 (Homo sapiens, UniProt P05177); format: in vitro ADME; settings: human liver microsomes
Sequence of CYP1A2 (Homo sapiens, UniProt P05177) (P05177 whole entry): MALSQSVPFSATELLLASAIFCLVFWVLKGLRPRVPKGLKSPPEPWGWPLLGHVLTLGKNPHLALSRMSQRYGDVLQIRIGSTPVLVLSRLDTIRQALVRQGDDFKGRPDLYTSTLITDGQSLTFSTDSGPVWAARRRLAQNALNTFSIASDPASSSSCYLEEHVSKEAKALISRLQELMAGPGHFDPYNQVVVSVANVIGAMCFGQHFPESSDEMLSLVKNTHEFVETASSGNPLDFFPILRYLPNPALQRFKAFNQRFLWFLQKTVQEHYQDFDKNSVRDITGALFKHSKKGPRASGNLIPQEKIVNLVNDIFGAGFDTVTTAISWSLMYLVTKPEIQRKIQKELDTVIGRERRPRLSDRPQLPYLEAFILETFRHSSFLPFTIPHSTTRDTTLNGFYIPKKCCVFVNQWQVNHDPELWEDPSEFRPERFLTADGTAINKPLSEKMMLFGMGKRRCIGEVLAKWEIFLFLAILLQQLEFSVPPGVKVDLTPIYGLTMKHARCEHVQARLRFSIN

K. pneumoniae = experiment: Example 4 CAP study, outcome by baseline pathogen; format: in vivo, Klebsiella pneumoniae
From the text: as §1

E. coli = experiment: Example 5 CAP study, outcome by baseline pathogen; format: in vivo, Escherichia coli
From the text: as §1

H. influenzae [10] = experiment: Example 5 CAP study, outcome by baseline pathogen; format: in vivo
From the text: as §1

H. parainfluenzae [11] = experiment: Example 4 CAP study, outcome by baseline pathogen; format: in vivo
From the text: as §1

[12] = system: Community-Acquired Bacterial Pneumonia (CABP); experiment: Phase 3 CABP Study 1 (Example 5, adjunctive clarithromycin); format: in vivo, human; settings: for Clinical Cure Rate at TOC / Treatment Difference in clinical cure rate at TOC: CABP Study 1; for Difference, clinical cure rate at EOT / Difference, favorable microbiological outcome at TOC: ceftaroline minus ceftriaxone, Example 5; for Treatment Difference in clinical cure rate at TOC: versus ceftriaxone
Experimental: as §2
The primary efficacy endpoint was the clinical response at the Test of Cure (TOC) visit in the co-primary CE and MITTE populations (Table 4).
The secondary objective of the study was to evaluate the following: the clinical response at end-of-therapy (EOT); the microbiological favorable outcome rate at TOC; the overall (clinical and radiographic) success rate at TOC; the clinical and microbiological response by pathogen at TOC; clinical relapse at late follow-up (LFU); microbiological reinfection/recurrence at LFU; and safety.
The primary efficacy outcome measures were the per-subject clinical cure rate at TOC in the CE and MITTE Populations. Subjects were considered clinically cured at TOC if they had total resolution of all signs and symptoms of the baseline infection, or improvement of the infection such that no further antimicrobial therapy was necessary.
Non-inferiority was concluded if the lower limit of the 95% CI was higher than −10%.

MDRSP = experiment: Example 5 CAP study, outcome by baseline pathogen; format: in vivo, Streptococcus pneumoniae
From the text: as §1

S. pneumoniae = experiment: Example 5 CAP study, outcome by baseline pathogen; format: in vivo, Streptococcus pneumoniae
From the text: as §1

H. influenzae [13] = experiment: Example 4 CAP study, outcome by baseline pathogen; format: in vivo, Haemophilus influenzae
From the text: as §1

[14] = Pharmacokinetics in adolescent patients; format: in vivo, human; settings: adolescents 12 to 17; 8 mg/kg ceftaroline fosamil (or 600 mg if >75 kg)
Experimental: The pharmacokinetics of ceftaroline were evaluated in adolescent patients (ages 12 to 17) with normal renal function.

CYP2B6 [15] = target: T6, CYP2B6 (Homo sapiens, UniProt P20813); experiment: CYP inhibition in human liver microsomes; format: in vitro ADME
T6 construct: In vitro studies in human liver microsomes; from tissue; host or cells: human liver microsomes
T6 sequence (P20813 whole entry): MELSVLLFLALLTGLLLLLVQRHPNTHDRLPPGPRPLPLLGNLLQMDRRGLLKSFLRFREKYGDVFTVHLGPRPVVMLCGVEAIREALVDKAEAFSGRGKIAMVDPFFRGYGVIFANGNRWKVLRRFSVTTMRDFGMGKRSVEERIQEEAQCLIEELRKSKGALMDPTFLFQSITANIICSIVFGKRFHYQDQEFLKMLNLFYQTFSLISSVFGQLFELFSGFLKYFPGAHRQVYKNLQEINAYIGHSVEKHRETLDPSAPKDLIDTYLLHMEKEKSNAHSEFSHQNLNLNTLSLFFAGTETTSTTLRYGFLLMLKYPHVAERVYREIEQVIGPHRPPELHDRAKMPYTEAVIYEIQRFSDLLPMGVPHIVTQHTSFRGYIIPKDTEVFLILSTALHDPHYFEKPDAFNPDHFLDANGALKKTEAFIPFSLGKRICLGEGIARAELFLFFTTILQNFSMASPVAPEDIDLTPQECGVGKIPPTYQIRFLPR

H. parainfluenzae [16] = experiment: Example 5 CAP study, outcome by baseline pathogen; format: in vivo, Haemophilus parainfluenzae
From the text: as §1

In the case of `CCO/N=C(\C(=O)N[C@@H]1C(=O)N2C(C(=O)[O-])=C(Sc3nc(-c4cc[n+](C)cc4)cs3)CS[C@H]12)c1nsc(N)n1` [Ceftaroline], the “Cmax, elderly versus younger subjects” value [1] is reported as “not significantly different”, the “inhibition of CYP1A1” value (CYP1A1) is reported as “neither ceftaroline fosamil nor ceftaroline inhibits” and the “induction of CYP2B6” value (CYP2B6 [2]) is reported as “not inducers”. For the same compound, the “inhibition of CYP2C8” value (CYP2C8 [3]) was “neither ceftaroline fosamil nor ceftaroline inhibits”, the “inhibition of CYP2A6” value (CYP2A6) was “neither ceftaroline fosamil nor ceftaroline inhibits” and the CL/Fm ([4]; human) was 9.58 (1.85) L/h. For the same compound, the “mean plasma terminal elimination half-life” value ([4]; human) was “approximately 2.5 hours”, the “Cmax and AUC versus dose” value [4] was “increased approximately in proportion to increases in dose” and the “induction of CYP2C8” value (CYP2C8 [5]) was “not inducers”. For the same compound, the “induction of CYP1A2” value (CYP1A2 [6]) was “not inducers”, the “inhibition of CYP3A4” value (CYP3A4) was “neither ceftaroline fosamil nor ceftaroline inhibits” and the “Favorable Microbiological Outcome at TOC by Baseline Pathogen” value (S. aureus; ME) was 8/10 (80.0) %. The “Clinical Cure Rate at the TOC Visit by Baseline Pathogen” value (shortened to “Clinical Cure Rate at the TOC Visit”) (S. aureus; ME population) was 8/10 (80.0) %, the “inhibition of CYP2C9” value (CYP2C9) was “neither ceftaroline fosamil nor ceftaroline inhibits” and the “induction of CYP2C19” value (CYP2C19) was “not inducers”. The “Clinical Cure Rate at TOC” value ([7]; CE population) was 387/459 (84.3) %, the “Clinical Cure Rate at TOC” value ([7]; MITTE population) was 479/580 (82.6) % and the “Treatment Difference in clinical cure rate at TOC” value (shortened to “Treatment Difference … at TOC”) ([7]; CE) was 6.7 (1.6, 11.8) %. The “Treatment Difference … at TOC” value ([7]; CE, listed as ceftaroline) was 6.7%, the “Weighted treatment difference (95% CI)” value ([7]; ME) was 9.7 (0.7, 18.8) % and the “Weighted treatment difference (95% CI)” value ([7]; ME, listed as ceftaroline) was 9.7%. For the same compound, the “Treatment Difference … at TOC” value ([7]; MITTE) was 6.0 (1.4, 10.7) %, the “Weighted treatment difference (95% CI)” value ([7]; mMITTE) was 8.7 (−0.0, 17.4) % and the “Weighted treatment difference (95% CI)” value ([7]; mMITTE, listed as ceftaroline) was 8.7%. The “exposure (Cmax and AUC) with concomitant inhibitors, inducers and substrates of cytochrome P450” value [8] was “did not identify any clinically relevant increases”, the “inhibition of CYP1A2” value (CYP1A2 [9]) was “neither ceftaroline fosamil nor ceftaroline inhibits” and the “Favorable Microbiological Outcome at TOC by Baseline Pathogen” value (K. pneumoniae; ME) was 6/6 (100.0) %. For the same compound, the “Clinical Cure Rate at the TOC Visit” value (K. pneumoniae; ME population) was 6/6 (100.0) %, the “Favorable Microbiological Outcome at TOC by Baseline Pathogen” value (E. coli; ME) was 8/8 (100.0) % and the “Clinical Cure Rate at the TOC Visit” value (E. coli; ME population) was 8/8 (100.0) %. The “Favorable Microbiological Outcome at TOC by Baseline Pathogen” value (H. influenzae [10]; ME) was 2/3 (66.7) %, the “Clinical Cure Rate at the TOC Visit” value (H. influenzae [10]; ME population) was 2/3 (66.7) % and the “Favorable Microbiological Outcome at TOC by Baseline Pathogen” value (H. parainfluenzae [11]; ME) was 9/9 (100.0) %. For the same compound, the “Clinical Cure Rate at the TOC Visit” value (H. parainfluenzae [11]; ME population) was 9/9 (100.0) %, the “Clinical Cure Rate at TOC” value ([12]; CE population) was 194 (86.6) % and the “Clinical Cure Rate at TOC” value ([12]; MITTE population) was 244 (83.8) %. The “Difference, clinical cure rate at EOT” value ([12]; CE) was 7.6%, the “Difference, favorable microbiological outcome at TOC” value ([12]; ME) was 11.0% and the “Difference, clinical cure rate at EOT” value ([12]; MITTE) was 6.3%. The “Difference, favorable microbiological outcome at TOC” value ([12]; mMITTE) was 9.3%, the “Treatment Difference … at TOC” value ([12]; CE) was 8.4% and the “Treatment Difference … at TOC” value ([12]; MITTE) was 6.2%. For the same compound, the “Favorable Microbiological Outcome at TOC by Baseline Pathogen” value (MDRSP; ME) was 2/2 (100.0) %, the “Clinical Cure Rate at the TOC Visit” value (MDRSP; ME population) was 2/2 (100.0) % and the “Favorable Microbiological Outcome at TOC by Baseline Pathogen” value (S. pneumoniae; ME) was 21/24 (87.5) %. The “Clinical Cure Rate at the TOC Visit” value (S. pneumoniae; ME population) was 21/24 (87.5) %, the “Favorable Microbiological Outcome at TOC by Baseline Pathogen” value (H. influenzae [13]; ME) was 13/15 (86.7) % and the “Clinical Cure Rate at the TOC Visit” value (H. influenzae [13]; ME population) was 13/15 (86.7) %. The “mean AUC less than in adult subjects after 600 mg” value [14] was roughly 23%, the “mean Cmax less than in adult subjects after 600 mg” value [14] was “about 10%” and the “inhibition of CYP2B6” value (CYP2B6 [15]) was “neither ceftaroline fosamil nor ceftaroline inhibits”. For the same compound, the “Favorable Microbiological Outcome at TOC by Baseline Pathogen” value (H. parainfluenzae [16]; ME) was 7/7 (100.0) % and the “Clinical Cure Rate at the TOC Visit” value (H. parainfluenzae [16]; ME population) was 7/7 (100.0) %.
